Results from ChEMBL document CHEMBL1144495, “Tri-, tetra- and heptacyclic perylene analogues as new potential antineoplastic agents based on DNA telomerase inhibition” (Bioorg Med Chem, 2007).
pIC50: −log10 of the molar value. Activity calls are given as the source filed them. The calls are words filed in the database; no cut-off is given here.

How the values were obtained:
[1] = molecular target: DNA polymerase I, thermostable (Thermus aquaticus, UniProt P19821); assay: Inhibition of Taq polymerase
Sequence of DNA polymerase I, thermostable (P19821 whole entry): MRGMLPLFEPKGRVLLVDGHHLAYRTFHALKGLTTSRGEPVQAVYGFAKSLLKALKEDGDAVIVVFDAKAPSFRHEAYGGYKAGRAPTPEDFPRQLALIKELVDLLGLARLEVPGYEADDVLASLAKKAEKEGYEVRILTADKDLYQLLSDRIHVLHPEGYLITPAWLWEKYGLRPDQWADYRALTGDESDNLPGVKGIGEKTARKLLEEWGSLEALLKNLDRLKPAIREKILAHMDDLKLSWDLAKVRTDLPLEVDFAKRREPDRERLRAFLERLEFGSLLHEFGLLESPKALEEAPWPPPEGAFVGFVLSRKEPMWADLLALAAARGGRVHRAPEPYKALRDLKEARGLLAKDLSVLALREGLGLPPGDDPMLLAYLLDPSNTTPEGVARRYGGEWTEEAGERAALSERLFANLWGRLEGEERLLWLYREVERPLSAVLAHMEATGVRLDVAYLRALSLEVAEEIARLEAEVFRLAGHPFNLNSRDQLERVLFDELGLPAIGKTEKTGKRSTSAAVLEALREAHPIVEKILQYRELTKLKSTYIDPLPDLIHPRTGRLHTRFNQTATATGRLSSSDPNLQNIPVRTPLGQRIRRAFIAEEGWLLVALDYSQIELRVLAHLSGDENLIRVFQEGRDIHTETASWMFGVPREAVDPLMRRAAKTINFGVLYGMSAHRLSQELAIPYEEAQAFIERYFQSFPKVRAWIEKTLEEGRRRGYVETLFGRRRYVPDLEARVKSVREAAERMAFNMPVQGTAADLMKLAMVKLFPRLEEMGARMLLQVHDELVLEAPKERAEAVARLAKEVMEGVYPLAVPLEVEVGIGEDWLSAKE

[2] = molecular target: T1, Telomerase reverse transcriptase (Homo sapiens, UniProt O14746); assay: Inhibition of telomerase in JR8 cell extract by TRAP assay; assay type: cell-free
T1 sequence (O14746 whole entry): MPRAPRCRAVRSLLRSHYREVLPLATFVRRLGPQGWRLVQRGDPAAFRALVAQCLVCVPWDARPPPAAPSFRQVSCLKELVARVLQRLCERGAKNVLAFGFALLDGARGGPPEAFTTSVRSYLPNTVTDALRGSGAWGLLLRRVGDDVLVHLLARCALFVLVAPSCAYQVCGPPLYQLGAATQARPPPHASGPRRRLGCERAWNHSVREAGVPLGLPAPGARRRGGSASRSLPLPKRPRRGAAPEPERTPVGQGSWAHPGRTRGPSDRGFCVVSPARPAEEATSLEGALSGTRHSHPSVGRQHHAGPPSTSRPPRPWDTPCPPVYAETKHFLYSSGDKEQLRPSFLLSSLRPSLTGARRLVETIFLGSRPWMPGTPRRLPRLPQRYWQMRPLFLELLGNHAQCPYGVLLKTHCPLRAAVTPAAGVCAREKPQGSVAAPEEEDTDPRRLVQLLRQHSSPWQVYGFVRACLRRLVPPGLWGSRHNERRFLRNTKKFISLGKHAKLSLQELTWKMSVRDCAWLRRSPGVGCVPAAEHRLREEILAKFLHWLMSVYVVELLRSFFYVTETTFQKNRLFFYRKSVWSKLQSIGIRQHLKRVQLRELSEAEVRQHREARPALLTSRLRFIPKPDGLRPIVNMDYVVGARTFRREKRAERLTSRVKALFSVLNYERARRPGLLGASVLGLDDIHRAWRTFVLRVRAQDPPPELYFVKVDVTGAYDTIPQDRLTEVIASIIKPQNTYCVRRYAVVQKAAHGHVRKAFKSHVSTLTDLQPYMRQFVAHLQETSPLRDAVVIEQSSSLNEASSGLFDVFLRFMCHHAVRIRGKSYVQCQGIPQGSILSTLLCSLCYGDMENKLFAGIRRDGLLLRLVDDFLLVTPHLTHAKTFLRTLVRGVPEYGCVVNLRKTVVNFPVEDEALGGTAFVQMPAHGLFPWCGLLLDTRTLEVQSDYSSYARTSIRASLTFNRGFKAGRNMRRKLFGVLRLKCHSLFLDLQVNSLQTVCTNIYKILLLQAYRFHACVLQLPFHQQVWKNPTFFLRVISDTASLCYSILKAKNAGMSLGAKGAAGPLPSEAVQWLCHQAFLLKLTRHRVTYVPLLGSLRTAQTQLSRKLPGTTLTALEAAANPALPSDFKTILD

NCI-H460 = assay: Cytotoxicity against human H460 cells by MTT assay; assay type: cell-based
[3] = Selectivity index, ratio of IC50 for Taq polymerase to IC50 for telomerase
HT-29 = assay: Cytotoxicity against human HT29 cells by MTT assay; assay type: cell-based
[4] = molecular target: T1, Telomerase reverse transcriptase; assay: Inhibition of telomerase in JR8 cell extract at 0 to 40 uM by TRAP assay; assay type: cell-free

| Compound | pIC50 [1] | pIC50 [2] | pIC50 (NCI-H460) | Selectivity index [3] | pIC50 (HT-29) | Activity [4] |
| --- | --- | --- | --- | --- | --- | --- |
| O=C1c2ccc3c4ccc5c6c(ccc(c7ccc(c2c37)C(=O)N1CCN1CCCCC1)c64)C(=O)N(CCN1CCCCC1)C5=O | 5.30 | 6.70 | ≤ 4.00 | 25 | 5.04 |  |
| C[N+](C)(C)CCN1C(=O)c2ccc3c4ccc5c6c(ccc(c7ccc(c2c37)C1=O)c64)C(=O)N(CC[N+](C)(C)C)C5=O | 6.82 | 7.52 | ≤ 4.00 | 4.2 | ≤ 4.00 |  |
| C[N+](C)(C)CCCN1C(=O)c2ccc3c4c(ccc(c24)C1=O)C(=O)N(CCC[N+](C)(C)C)C3=O | 5.30 | 5.60 | 5.94 | 2 | 5.05 |  |
| CN(C)CCN1C(=O)c2cccc3cccc(c23)C1=O | < 4.40 |  | 5.47 |  | 5.30 | inactive |
| C[N+](C)(C)CCN1C(=O)c2ccc3c4c(ccc(c24)C1=O)C(=O)N(CC[N+](C)(C)C)C3=O | 5.30 | 5.60 | 5.66 | 2 | 5.49 |  |
| O=C1c2ccc3c4c(ccc(c24)C(=O)N1CCNCCO)C(=O)N(CCNCCO)C3=O | 5.24 |  | 5.03 |  | 4.93 | inactive |
| C[N+](C)(C)CCN1C(=O)c2cccc3cccc(c23)C1=O | 4.66 |  | ≤ 4.00 |  |  | inactive |
| CN(C)CCN1C(=O)c2ccc3c4ccc5c6c(ccc(c7ccc(c2c37)C1=O)c64)C(=O)N(CCN(C)C)C5=O | 6.05 | 6.80 | 5.64 | 5.6 | 6.64 |  |
| CN1Cc2ccc3c4c(ccc(c24)C1)CN(C)C3 | < 4.40 |  | ≤ 4.00 |  | ≤ 4.00 | inactive |
| CN(C)CCN1C(=O)c2ccc3c4c(ccc(c24)C1=O)C(=O)N(CCN(C)C)C3=O | 5.82 |  | 6.80 |  |  | inactive |
| CN(C)CCCN1C(=O)c2ccc3c4c(ccc(c24)C1=O)C(=O)N(CCCN(C)C)C3=O | 5.19 | 5.46 | 6.38 | 1.8 | 6.89 |  |
| CN(C)CCN1Cc2cccc3cccc(c23)C1 | < 4.40 |  | ≤ 4.00 |  | ≤ 4.00 | inactive |
| O=C1c2ccc3c4ccc5c6c(ccc(c7ccc(c2c37)C(=O)N1CCNCCO)c64)C(=O)N(CCNCCO)C5=O | 6.70 | 7.22 | 5.58 | 2 | 5.93 |  |
| CN(C)CCN1Cc2ccc3c4c(ccc(c24)C1)CN(CCN(C)C)C3 | 4.60 |  | ≤ 4.00 |  | 4.82 | inactive |
| c1cc2c3ccc4c5c(ccc(c6ccc7c(c1CN(CCN1CCCCC1)C7)c26)c53)CN(CCN1CCCCC1)C4 | 5.00 | 6.40 | 4.55 | 25 | 5.27 |  |
